# Patent US8592629B2, “Sulfonamide derivatives as Nav 1.7 inhibitors” (Pfizer Limited, priority 2010, dated 2013)
# Where a name gives a salt, the structure may show the parent alone.
# Target: T1, Nav1.7 (or SCN9A) channel (Homo sapiens, UniProt Q15858)
# T1 construct: expressed in transfected cells
# Test: Nav1.7 (hSCN9A) block in HEK cells, PatchXpress 7000 automated electrophysiology, estimated IC50 (EIC50)
# Format: cell-based
# Conditions: PatchXpress assay; HEK cells stably transfected with hSCN9A, voltage-clamped at V1/2 of inactivation
# Method: The ability of the compounds of formula (I) to block the Nav1.7 (or SCN9A) channel were measured using the assay described below.
# Human Embryonic Kidney (HEK) cells were transfected with an hSCN9A construct using lipofectamine reagent (Invitrogen), using standard techniques. Cells stably expressing the hSCN9A constructs were identified by their resistance to G-418 (400 μg/ml). Clones were screened for expression using the whole-cell voltage-clamp technique.
# HEK cells stably transfected with hSCN9A were maintained in DMEM medium supplemented with 10% heat-inactivated fetal bovine serum and 400 μg/ml G-418 in an incubator at 37° C. with a humidified atmosphere of 10% CO2. For HTS, cells were harvested from flasks by trypsinization and replated in an appropriate multi-well plate (typically 96 or 384 wells/plate) such that confluence would be achieved within 24 hours of plating. For electrophysiological studies, cells were removed from the culture flask by brief trypsinization and re-plated at low density onto glass cover slips. Cells were typically used for electrophysiological experiments within 24 to 72 hours after plating.
# HEK cells stably transfected with hSCN9A were viewed under Hoffman contrast optics and placed in front of an array of flow pipes emitting either control or compound-containing extracellular solutions. All compounds were dissolved in dimethyl sulfoxide to make 10 mM stock solutions, which were then diluted into extracellular solution to attain the final concentrations desired. […] The voltage-dependence of inactivation was determined by applying a series of depolarizing prepulses (8 sec long in 10 mV increments) from a negative holding potential. The voltage was then immediately stepped to 0 mV to assess the magnitude of the sodium current. Currents elicited at 0 mV were plotted as a function of prepulse potential to allow estimation of the voltage at which 50% of the channels were inactivated (midpoint of inactivation or V1/2). Compounds were tested for their ability to inhibit hSCN9A sodium channels by activating the channel with a 20 msec voltage step to 0 mV following an 8 second conditioning prepulse to the empirically determined V1/2. Compound effect (% inhibition) was determined by difference in current amplitude before and after application of test compounds. For ease of comparison, “estimated IC-50” (EIC50) values were calculated from single point electrophysiology data by the following equation, (tested concentration, uM) X (100-% inhibition/% inhibition). Inhibition values <20% and >80% were excluded from the calculation.
# Electrophysiological assays were conducted with PatchXpress 7000 hardware and associated software (Molecular Devices Corp). All assay buffers and solutions were identical to those used in conventional whole-cell voltage clamp experiments described above. hSCN9A cells were grown as above to 50%-80% confluency and harvested by trypsinization. Trypsinized cells were washed and resuspended in extracellular buffer at a concentration of 1×10^6 cells/ml. The onboard liquid handling facility of the PatchXpress was used for dispensing cells and application of test compounds. Determination of the voltage midpoint of inactivation was as described for conventional whole-cell recordings. Cells were then voltage-clamped to the empirically determined V1/2 and current was activated by a 20 msec voltage step to 0 mV.
# Compounds of the Examples were tested in the assays described above and found to have the Nav1.7 EIC50 (μM) values specified in the table below. All data are derived from the PatchXpress assay unless explicitly stated otherwise.
# T1 sequence (Q15858 whole entry): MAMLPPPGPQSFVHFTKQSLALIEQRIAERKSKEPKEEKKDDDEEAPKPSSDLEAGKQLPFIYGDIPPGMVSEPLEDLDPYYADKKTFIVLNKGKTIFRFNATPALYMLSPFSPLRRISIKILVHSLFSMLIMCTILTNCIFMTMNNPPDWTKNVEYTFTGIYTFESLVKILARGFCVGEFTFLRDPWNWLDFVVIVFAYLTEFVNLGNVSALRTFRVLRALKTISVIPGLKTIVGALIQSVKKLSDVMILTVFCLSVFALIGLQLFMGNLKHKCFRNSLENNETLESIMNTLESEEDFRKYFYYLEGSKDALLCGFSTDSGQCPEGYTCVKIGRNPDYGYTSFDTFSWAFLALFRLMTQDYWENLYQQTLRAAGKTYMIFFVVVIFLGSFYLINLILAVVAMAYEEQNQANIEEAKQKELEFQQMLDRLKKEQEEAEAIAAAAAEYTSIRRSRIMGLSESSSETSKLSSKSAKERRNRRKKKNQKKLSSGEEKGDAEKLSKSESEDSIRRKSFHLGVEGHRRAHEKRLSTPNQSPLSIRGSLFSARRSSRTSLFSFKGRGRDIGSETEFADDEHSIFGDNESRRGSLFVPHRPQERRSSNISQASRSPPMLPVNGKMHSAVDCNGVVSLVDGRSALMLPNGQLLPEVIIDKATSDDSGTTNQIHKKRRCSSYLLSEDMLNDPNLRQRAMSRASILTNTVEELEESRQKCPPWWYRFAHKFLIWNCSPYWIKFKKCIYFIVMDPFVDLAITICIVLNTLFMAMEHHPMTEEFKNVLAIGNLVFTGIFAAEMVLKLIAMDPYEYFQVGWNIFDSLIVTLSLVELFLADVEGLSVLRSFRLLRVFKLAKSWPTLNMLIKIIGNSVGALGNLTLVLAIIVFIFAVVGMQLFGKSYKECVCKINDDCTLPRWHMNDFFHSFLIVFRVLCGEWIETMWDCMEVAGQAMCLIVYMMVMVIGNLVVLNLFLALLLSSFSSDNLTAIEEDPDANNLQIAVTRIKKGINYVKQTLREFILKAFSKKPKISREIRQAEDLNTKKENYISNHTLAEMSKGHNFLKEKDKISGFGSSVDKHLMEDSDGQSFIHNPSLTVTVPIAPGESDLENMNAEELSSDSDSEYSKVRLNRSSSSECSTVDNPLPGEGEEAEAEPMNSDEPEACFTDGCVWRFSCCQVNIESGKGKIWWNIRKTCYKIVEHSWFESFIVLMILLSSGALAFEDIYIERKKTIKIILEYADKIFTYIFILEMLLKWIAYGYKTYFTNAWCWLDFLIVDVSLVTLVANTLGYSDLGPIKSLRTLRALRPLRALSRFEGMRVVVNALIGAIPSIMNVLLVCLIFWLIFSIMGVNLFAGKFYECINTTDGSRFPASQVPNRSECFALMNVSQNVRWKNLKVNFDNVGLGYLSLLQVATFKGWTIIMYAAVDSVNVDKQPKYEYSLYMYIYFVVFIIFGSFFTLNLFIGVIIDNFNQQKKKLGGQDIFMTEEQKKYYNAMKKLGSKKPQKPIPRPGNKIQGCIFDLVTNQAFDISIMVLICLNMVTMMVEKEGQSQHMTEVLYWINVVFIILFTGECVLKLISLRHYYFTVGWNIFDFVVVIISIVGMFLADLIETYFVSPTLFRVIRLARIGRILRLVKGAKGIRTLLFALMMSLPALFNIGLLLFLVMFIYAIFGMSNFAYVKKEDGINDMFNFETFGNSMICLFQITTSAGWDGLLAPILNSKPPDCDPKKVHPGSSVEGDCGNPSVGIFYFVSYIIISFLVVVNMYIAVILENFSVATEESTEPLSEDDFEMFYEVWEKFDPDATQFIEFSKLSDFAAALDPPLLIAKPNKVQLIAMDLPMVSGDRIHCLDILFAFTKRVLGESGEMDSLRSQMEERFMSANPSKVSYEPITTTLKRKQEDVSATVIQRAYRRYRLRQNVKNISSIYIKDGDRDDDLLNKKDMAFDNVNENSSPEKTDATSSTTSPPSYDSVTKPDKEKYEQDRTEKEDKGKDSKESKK
row,Structure (SMILES),IC50
1,"COC(C)(C)CNc1ncc(Oc2cc(F)c(C(=O)NS(C)(=O)=O)cc2F)cc1Cl [Example 122, 4-({5-chloro-6-[(2-methoxy-2-methylpropyl)amino]pyridin-3-yl}oxy)-2,5-difluoro-N-(methylsulfonyl)benzamide]",250 nM
2,"CS(=O)(=O)NC(=O)c1cc(F)c(Oc2cccn3ccnc23)cc1F [Example 90, 2,5-difluoro-4-(imidazo[1,2-a]pyridin-8-yloxy)-N-(methylsulfonyl)benzamide]",> 3000 nM
3,"CS(=O)(=O)NC(=O)c1cc(Cl)c(Oc2cnc(OC3COC3)c(Cl)c2)cc1F [Example 10, 5-Chloro-4-{[5-chloro-6-(oxetan-3-yloxy)pyridin-3-yl]oxy}-2-fluoro-N-(methylsulfonyl)benzamide]",900 nM
4,"CS(=O)(=O)NC(=O)c1cc(F)c(Oc2cnc(N3CC(F)C3)c(Cl)c2)cc1F [Example 134, 4-{[5-chloro-6-(3-fluoroazetidin-1-yl)pyridin-3-yl]oxy}-2,5-difluoro-N-(methylsulfonyl)benzamide]",580 nM
5,"COc1ccncc1Oc1cc(F)c(C(=O)NS(C)(=O)=O)cc1F [Example 89, 2,5-difluoro-4-(4-methoxypyridin-3-yloxy)-N-(methylsulfonyl)benzamide]",> 3000 nM
6,"CC(C)(O)c1ncc(Oc2cc(F)c(C(=O)NS(C)(=O)=O)cc2Cl)cc1Cl [Example 48, 5-chloro-4-{[5-chloro-6-(1-hydroxy-1-methylethyl)pyridin-3-yl]oxy}-2-fluoro-N-(methylsulfonyl)benzamide]",3500 nM
7,"COc1ncc(Oc2cc(F)c(C(=O)NS(C)(=O)=O)cc2F)cc1Cl [Example 25, 4-[(5-chloro-6-methoxypyridin-3-yl)oxy]-2,5-difluoro-N-(methylsulfonyl)benzamide]",9800 nM
8,"COc1ncc(Oc2cc(F)c(C(=O)NS(=O)(=O)C3CC3)cc2F)cc1Cl [Example 15, 4-(5-Chloro-6-methoxypyridin-3-yloxy)-N-(cyclopropylsulfonyl)-2,5-difluorobenzamide diethylamine salt]",4600 nM
9,"CCN(C)c1ncc(Oc2cc(F)c(C(=O)NS(C)(=O)=O)cc2F)cc1Cl [Example 117, 4-({5-chloro-6-[ethyl(methyl)amino]pyridin-3-yl}oxy)-2,5-difluoro-N-(methylsulfonyl)benzamide]",900 nM
10,"CC(C)c1nccnc1Oc1cc(F)c(C(=O)NS(C)(=O)=O)cc1F [Example 193, 2,5-difluoro-4-[(3-isopropylpyrazin-2-yl)oxy]-N-(methylsulfonyl)benzamide]",2100 nM
11,"CS(=O)(=O)NC(=O)c1cc(F)c(Oc2cc(Cl)cc3cccnc23)cc1F [Example 88, 4-[(6-chloroquinolin-8-yl)oxy]-2,5-difluoro-N-(methylsulfonyl)benzamide]",> 3000 nM
12,"CC(C)Oc1ncc(Oc2ccc(C(=O)NS(C)(=O)=O)c(F)c2)cc1Cl [Example 36, 4-[(5-chloro-6-isopropoxypyridin-3-yl)oxy]-2-fluoro-N-(methylsulfonyl)benzamide]",310 nM
13,"COc1cc(C(=O)NS(C)(=O)=O)ccc1Oc1cnc(OC(C)C)c(Cl)c1 [Example 69, 4-[(5-chloro-6-isopropoxypyridin-3-yl)oxy]-3-methoxy-N-(methylsulfonyl)benzamide]",250 nM
14,"CS(=O)(=O)NC(=O)c1cc(F)c(Oc2cnc(N[C@@H]3CCC[C@H]3F)c(Cl)c2)cc1F [Example 144, 4-[(5-chloro-6-{[(1R,2R)-2-fluorocyclopentyl]amino}pyridin-3-yl)oxy]-2,5-difluoro-N-(methylsulfonyl)benzamide]",490 nM
15,"CC(C)Oc1ncc(Oc2c(F)cc(C(=O)NS(C)(=O)=O)cc2F)cc1Cl [Example 32, 4-[(5-chloro-6-isopropoxypyridin-3-yl)oxy]-3,5-difluoro-N-(methylsulfonyl)benzamide]",340 nM
16,"COCCNc1ncc(Oc2cc(F)c(C(=O)NS(C)(=O)=O)cc2F)cc1Cl [Example 143, 4-({5-chloro-6-[(2-methoxyethyl)amino]pyridin-3-yl}oxy)-2,5-difluoro-N-(methylsulfonyl)benzamide]",> 1000 nM

# The next compounds have a lower IC50 than those just listed; values first:
row,IC50,Structure (SMILES)
1,240 nM,"CS(=O)(=O)NC(=O)c1cc(F)c(Oc2cnc(OCCC(F)(F)F)c(Cl)c2)cc1F [Example 62, 4-{[5-chloro-6-(3,3,3-trifluoropropoxy)pyridin-3-yl]oxy}-2,5-difluoro-N-(methylsulfonyl)benzamide]"
2,160 nM,"CS(=O)(=O)NC(=O)c1cc(Cl)c(Oc2cnc(OCC(F)F)c(Cl)c2)cc1F [Example 52, 5-chloro-4-{[5-chloro-6-(2,2-difluoroethoxy)pyridin-3-yl]oxy}-2-fluoro-N-(methylsulfonyl)benzamide]"
3,160 nM,"CC(C)(F)COc1ncc(Oc2cc(F)c(C(=O)NS(C)(=O)=O)cc2F)cc1Cl [Example 63, 4-{[5-chloro-6-(2-fluoro-2-methylpropoxy)pyridin-3-yl]oxy}-2,5-difluoro-N-(methylsulfonyl)benzamide]"
4,110 nM,"[2H]C(C)(C)Oc1ncc(Oc2cc(F)c(C(=O)NS(C)(=O)=O)cc2Cl)cc1Cl (single isomer, unassigned) [Example 46, 5-chloro-4-({5-chloro-6-[2-d1-propan-2-yloxy]pyridin-3-yl}oxy)-2-fluoro-N-(methylsulfonyl)benzamide]"
5,85 nM,"CS(=O)(=O)NC(=O)c1cc(F)c(Oc2cnc(NC3CCCC3)c(Cl)c2)cc1F [Example 138, 4-{[5-chloro-6-(cyclopentylamino)pyridin-3-yl]oxy}-2,5-difluoro-N-(methylsulfonyl)benzamide]"
6,72 nM,"CS(=O)(=O)NC(=O)c1cc(Cl)c(Oc2cnc(Oc3ccccc3)c(Cl)c2)cc1F [Example 100, 5-chloro-4-[(5-chloro-6-phenoxypyridin-3-yl)oxy]-2-fluoro-N-(methylsulfonyl)benzamide]"
7,50 nM,"O=C(NS(=O)(=O)C1CC1)c1cc(Cl)c(Oc2cnc(C3CC3)c(Cl)c2)cc1F [Example 92, 5-chloro-4-(5-chloro-6-cyclopropylpyridin-3-yloxy)-N-(cyclopropylsulfonyl)-2-fluorobenzamide]"
8,42 nM,"CC(C)Oc1ncc(Oc2ccc(C(=O)NS(C)(=O)=O)cc2Cl)cc1Cl [Example 82, 3-chloro-4-[(5-chloro-6-isopropoxypyridin-3-yl)oxy]-N-(methylsulfonyl)benzamide]"
9,41 nM,"CS(=O)(=O)NC(=O)c1cc(F)c(Oc2cnc(OCC3CC3)c(Cl)c2)cc1F [Example 35, 4-{[5-chloro-6-(cyclopropylmethoxy)pyridin-3-yl]oxy}-2,5-difluoro-N-(methylsulfonyl)benzamide]"
10,37 nM,"CS(=O)(=O)NC(=O)c1cc(Cl)c(Oc2cnc(N3CCC(F)(F)C3)c(Cl)c2)cc1F [Example 95, 5-chloro-4-(5-chloro-6-(3,3-difluoropyrrolidin-1-yl)pyridin-3-yloxy)-2-fluoro-N-(methylsulfonyl)benzamide]"
11,28 nM,"CS(=O)(=O)NC(=O)c1cc(F)c(Oc2cnc(OCC(F)(F)C(F)(F)F)c(Cl)c2)cc1F [Example 64, 4-{[5-chloro-6-(2,2,3,3,3-pentafluoropropoxy)pyridin-3-yl]oxy}-2,5-difluoro-N-(methylsulfonyl)benzamide]"
12,23 nM,"CS(=O)(=O)NC(=O)c1cc(Cl)c(Oc2cnc(OCC(F)(F)F)c(Cl)c2)cc1F [Example 58, 5-chloro-4-{[5-chloro-6-(2,2,2-trifluoroethoxy)pyridin-3-yl]oxy}-2-fluoro-N-(methylsulfonyl)benzamide]"
13,15 nM,"C[C@@H](Oc1ncc(Oc2cc(F)c(C(=O)NS(C)(=O)=O)cc2Cl)cc1Cl)C(F)(F)F [Example 99, 5-chloro-4-({5-chloro-6-[(1R)-2,2,2-trifluoro-1-methylethoxy]pyridin-3-yl}oxy)-2-fluoro-N-(methylsulfonyl)benzamide]"
14,13 nM,"CS(=O)(=O)NC(=O)c1cc(Cl)c(Oc2cnc(OCC(F)(F)C(F)(F)F)c(Cl)c2)cc1F [Example 56, 5-chloro-4-{[5-chloro-6-(2,2,3,3,3-pentafluoropropoxy)pyridin-3-yl]oxy}-2-fluoro-N-(methylsulfonyl)benzamide]"
